How the values were obtained:
RXRα [1] = target: T1, RXRα (Homo sapiens, UniProt P19793); experiment: Mammalian two-hybrid; format: cell-based; conditions: for agonist character in M2H assay: agonist format
T1 sequence (P19793 1-462): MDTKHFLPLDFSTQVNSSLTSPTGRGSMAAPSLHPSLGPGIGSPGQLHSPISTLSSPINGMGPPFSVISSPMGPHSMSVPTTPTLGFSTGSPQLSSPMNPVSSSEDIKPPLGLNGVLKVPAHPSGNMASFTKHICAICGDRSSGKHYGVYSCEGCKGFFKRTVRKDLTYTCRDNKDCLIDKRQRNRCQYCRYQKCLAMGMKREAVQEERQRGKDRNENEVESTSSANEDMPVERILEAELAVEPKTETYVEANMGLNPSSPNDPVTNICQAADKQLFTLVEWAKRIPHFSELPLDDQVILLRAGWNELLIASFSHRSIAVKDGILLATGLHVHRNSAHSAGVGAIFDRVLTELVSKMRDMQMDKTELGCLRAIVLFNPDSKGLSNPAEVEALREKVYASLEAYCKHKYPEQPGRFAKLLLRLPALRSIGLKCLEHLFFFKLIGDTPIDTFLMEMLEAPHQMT

RXRα–NURR1 heterodimer = RXRα–NURR1 heterodimer (Homo sapiens, UniProt P19793); experiment: BRET2 heterodimerization assay; conditions: for NURR1–RXRα vs RXRα–RXRα selectivity: BRET2 potency ratio heterodimer vs homodimer
RXRα [2] = target: T2, RXRα (Homo sapiens, UniProt P19793); experiment: Fluorescence polarization; format: biochemical; conditions: for agonist character in FP assay: agonist format
T2 sequence (P19793 227-458 limits assumed): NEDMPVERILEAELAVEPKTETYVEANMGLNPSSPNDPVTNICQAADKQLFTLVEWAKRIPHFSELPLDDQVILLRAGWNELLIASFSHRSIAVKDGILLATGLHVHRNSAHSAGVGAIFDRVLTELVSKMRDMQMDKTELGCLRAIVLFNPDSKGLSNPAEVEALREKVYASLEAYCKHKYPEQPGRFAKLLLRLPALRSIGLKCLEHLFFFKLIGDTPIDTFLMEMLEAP

RXRα–RXRα homodimer = target: T3, RXRα–RXRα homodimer (Homo sapiens, UniProt P19793); experiment: BRET2 homodimerization assay
T3 sequence (P19793 1-462) 1: T1 sequence (P19793 1-462)
T3 sequence (P19793 1-462) 2: T1 sequence (P19793 1-462)

RXRα [3] = target: T2, RXRα; experiment: Fluorescence polarization competition assay against LG100268; format: biochemical; conditions: for antagonist character in FP competition assay: competition against LG100268 (50 nM)
RXRα [4] = target: T1, RXRα; experiment: M2H luciferase competition assay against LG100268; format: cell-based; conditions: ligand in the 10–40 μM range after stimulation with LG100268 (10 nM)
[5] = FP/EC50, His6-RXRα-LBD 1 μM, fluorescein-labeled D22 coactivator peptide 0.1 μM

RXRα–NURR1 heterodimer, sequence (P43354 whole entry partner, one chain of several): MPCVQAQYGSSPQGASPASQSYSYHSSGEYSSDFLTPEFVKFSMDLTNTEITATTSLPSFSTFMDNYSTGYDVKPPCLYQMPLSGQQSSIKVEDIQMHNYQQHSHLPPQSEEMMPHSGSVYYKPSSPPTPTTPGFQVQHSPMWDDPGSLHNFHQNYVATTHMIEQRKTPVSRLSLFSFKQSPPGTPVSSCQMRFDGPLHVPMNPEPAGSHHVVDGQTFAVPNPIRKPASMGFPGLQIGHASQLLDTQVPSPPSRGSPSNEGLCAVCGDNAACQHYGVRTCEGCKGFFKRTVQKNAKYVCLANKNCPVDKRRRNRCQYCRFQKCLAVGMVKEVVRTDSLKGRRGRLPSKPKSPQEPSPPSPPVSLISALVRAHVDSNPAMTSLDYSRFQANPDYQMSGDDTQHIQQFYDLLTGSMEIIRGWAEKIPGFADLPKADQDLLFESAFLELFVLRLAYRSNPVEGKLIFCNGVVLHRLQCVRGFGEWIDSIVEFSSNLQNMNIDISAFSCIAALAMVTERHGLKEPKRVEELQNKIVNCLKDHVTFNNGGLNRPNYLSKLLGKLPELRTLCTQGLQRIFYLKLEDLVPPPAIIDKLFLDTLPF

Row | SMILES | EC50 (RXRα [1]) [µM] | EC50 (RXRα–NURR1 heterodimer) [µM] | NURR1–RXRα vs RXRα–RXRα selectivity (RXRα–NURR1 heterodimer) [fold] | EC50 (RXRα [2]; [5]) [µM] | EC50 (RXRα–RXRα homodimer) [µM] | agonist character in M2H assay (RXRα [1]) | agonist character in FP assay (RXRα [2]) | EC50 (RXRα [2]; potency range in FP assay) [µM] | IC50 (RXRα [3]) [µM] | antagonist character in FP competition assay (RXRα [3]) | effect in M2H competition assay (RXRα [4]) | bias toward RXRα homodimers over RXRα–NURR1 heterodimers (factor) (RXRα–RXRα homodimer; BRET2) | activity in BRET2 assay (RXRα–NURR1) (RXRα–NURR1 heterodimer) | activity in BRET2 assay (RXRα–RXRα) (RXRα–RXRα homodimer)
1 | O=C(O)/C=C/c1ccc(O)c(-c2cccc(-c3ccccc3)c2)c1 [ligand 2, (E)-3-(6-Hydroxy-[1,1′:3′,1″-terphenyl]-3-yl)acrylic Acid] | 0.085 ± 0.009 | 0.00316 | 10 | 0.14 ± 0.023 | 0.0316 |  |  |  |  |  |  |  |  | 
2 | O=C(O)/C=C/c1ccc(O)c(-c2cccc(Cc3ccccc3)c2)c1 [ligand 3, (E)-3-(3′-Benzyl-6-hydroxy-[1,1′-biphenyl]-3-yl)acrylic Acid] | 0.092 ± 0.036 | 0.00251 | 8 | 0.142 ± 0.009 | 0.02 |  |  |  |  |  |  |  |  | 
3 | CC(C)c1cccc(-c2cc(/C=C/C(=O)O)ccc2O)c1 [ligand 4, (E)-3-(6-Hydroxy-3′-isopropyl-[1,1′-biphenyl]-3-yl)acrylic Acid] | 0.0058 ± 0.0018 | 0.000794 | 25 | 0.089 ± 0.007 |  |  |  |  |  |  |  |  |  | 
4 | CCCc1cccc(-c2cc(/C=C/C(=O)O)ccc2O)c1 [ligand 5, (E)-3-(6-Hydroxy-3′-propyl-[1,1′-biphenyl]-3-yl)acrylic Acid] | 0.018 ± 0.01 | 0.00501 | 20 | 0.17 ± 0.08 | 0.1 |  |  |  |  |  |  |  |  | 
5 | Cc1c(-c2ccccc2)cccc1-c1cc(/C=C/C(=O)O)ccc1O [ligand 6, (E)-3-(6-Hydroxy-2′-methyl-[1,1′:3′,1″-terphenyl]-3-yl)acrylic Acid] | > 2.5 | 0.794 | 0.2 | 9.9 ± 2.5 | 0.158 | full agonism | full agonism | 1 to 10 |  |  |  |  |  | 
6 | Cc1ccc(-c2ccccc2)cc1-c1cc(/C=C/C(=O)O)ccc1O [ligand 7, (E)-3-(6-Hydroxy-6′-methyl-[1,1′:3′,1″-terphenyl]-3-yl)acrylic Acid] |  | 0.0794 | 0.4 | 1.02 ± 0.06 | 0.0316 | full agonism | full agonism | 1 to 10 |  |  |  |  |  | 
7 | C=CCc1ccc(OCCC)c(-c2cc(/C=C/C(=O)O)ccc2O)c1 [ligand 9, (E)-3-(5′-Allyl-6-hydroxy-2′-propoxy-[1,1′-biphenyl]-3-yl)acrylic Acid] |  | 0.158 | 0.1 |  | 0.02 |  | partial agonism |  | 48.5 ± 4.6 | partial antagonism | clear decrease in luciferase expression | 10 |  | 
8 | C=CCc1ccc(OCCCCCC)c(-c2cc(/C=C/C(=O)O)ccc2O)c1 [ligand 10, (E)-3-(5′-Allyl-2′-(hexyloxy)-6-hydroxy-[1,1′-biphenyl]-3-yl)acrylic Acid] |  | > 10 |  |  | > 10 |  |  |  | 46.9 ± 5.9 | full antagonism | clear decrease in luciferase expression |  | did not show appreciable activity | did not show appreciable activity
